From patent US7901906B2, “Targeting of MKRN1 for identifying cancer treatment agents” (University of Central Florida Research Foundation, Inc., priority 2006, dated 2011)
Non-standard residues stand in square brackets, D forms with d. Residues, ends and D or L forms follow the SMILES beside them. *: point of attachment. Nle = CCCC[C@H](N)C(=O)O; Cbz = O=C(OCc1ccccc1)*

Test system: hTERT
Assay: hTERT protein levels by immunoblotting in H1299 cells
Assay type: cell-based, human
Method: FIG. 1. hTERT is sensitive to the Hsp90 antagonist geldanamycin. (A) Down-regulation of ectopically expressed hTERT by GA. H1299 cells transfected with Flag-hTERT or Flag-TRF1 were treated with 0.1 μM GA for the indicated times. Lysates were resolved on 8% SDS-PAGE and analyzed by immunoblotting using an anti-Flag antibody probe. Cells were pretreated with 10 μM MG132 or E-64 for 2 hours, either alone or before treatment with GA. (B) Concentration dependence of GA on hTERT. H1299 cells transfected with Flag-hTERT or hTERT-HA were treated for 2 hours with the GA concentration indicated. The hTERT polypeptides were visualized with anti-Flag or anti-HA antibodies as marked by each blot. (C) Down-regulation of endogenous hTERT by GA. H1299 cells were treated with 0.1 μM GA for the indicated times, and cell lysates were analyzed by immunoprecipitation with anti-hTERT antibody followed by immunoblotting using same antibody probe. Cells were pretreated with 10 μM MG132 for 2 hours, either alone or before treatment with GA. Molecular weight markers are shown in kilodaltons. (D) H1299 cells were treated with 0.1 μM GA for the indicated times, and cell lysates were analyzed for telomerase activity by the TRAP assay. The lane labeled LB corresponds to the negative control (lysis buffer only). ITAS represents the internal telomerase assay standard. (E) Saos-2 cells transfected with Flag-hTERT or hTERT-HA or empty vector were untreated or treated with 0.1 μM GA for 16 hours, and cell lysates were analyzed for telomerase activity using the TRAP assay.
FIG. 2. hTERT is ubiquitinated prior to proteasome-mediated degradation. (A) H1299 cells were co-transfected with Flag-hTERT and HA-ubiquitin. Cells were either untreated or treated for 2 hours with 10 μg/ml ALLnN or 0.1 μM GA, or a combination of the two as specified above each lane. Immunoprecipitation was performed with anti-Flag antibody before probing with anti-hTERT or anti-HA antibodies as indicated besides each blot. Molecular weight markers are shown in kilodaltons. (B) H1299 cells co-transfected with Flag-hTERT and HA-ubiquitin were treated for 1 hour with the GA concentration indicated in the presence of 10 μM MG132. Immunoprecipitation was performed with anti-Flag antibody followed by immunoblotting using an anti-HA antibody probe. (C) H1299 cells co-transfected with Flag-hTERT and HA-ubiquitin were either untreated or treated for 2 hours with 10 μg/ml ALLnN as specified above each lane. Proteins were immunoprecipated with anti-Flag antibody followed by immunoblotting using an anti-HA antibody probe.
The human lung carcinoma cell line H1299 was cultured in RPMI-1640 medium, and the human fibrosarcoma cell line HT1080 was cultured in Dulbecco's modified Eagle's medium supplemented with 10% fetal bovine serum, 100 units/ml penicillin, and 100 μg/ml streptomycin in 5% CO2 at 37° C. The human osteosarcoma cell line Saos-2 was maintained in McCoy's 5A medium containing 15% fetal bovine serum, 100 units/ml penicillin, and 100 μg/ml streptomycin. To establish cell lines stably expressing MKRN1, the MKRN1-V5 construct was transfected into HT1080 cells using Lipofectamine Plus (Invitrogen, Carlsbad, Calif.) according to the manufacturer's instructions. As a control, HT1080 cells were also stably transfected with an empty vector. Multiple independent single clones were isolated and checked for protein expression by immunoblotting with anti-V5 antibody.
H1299 cells were transiently transfected with the expression vectors indicated in the figure legends using TransFast transfection reagent (Promega, Madison, Wis.) according to the manufacturer's instructions. Cells were lysed with buffer containing 0.5% NP-40, 50 mM Tris-HCl (pH 7.5), 150 mM NaCl, 2 mM phenyl methylsulphonyl fluoride. […]

`CCCC[C@@H](C=O)NC(=O)[C@H](CC(C)C)NC(=O)[C@H](CC(C)C)NC(C)=O` [ALLnN] (Ac-Leu-Leu-[Nle]-aldehyde) was tested, and the “effect on GA-induced decrease of hTERT levels” value (H1299 Flag-hTERT and HA-ubiquitin, 10 μg/ml ALLnN plus 0.1 μM GA, 2 hours) was “reversed this trend” and the hTERT levels (H1299 co-transfected with Flag-hTERT and HA-ubiquitin, 2 hours, single agent (0.1 μM GA or 10 μg/ml ALLnN)) was “did not affect”.

`CC(C)C[C@@H](C=O)NC(=O)[C@H](CC(C)C)NC(=O)[C@H](CC(C)C)NC(=O)OCc1ccccc1` [MG132] (Cbz-Leu-Leu-Leu-aldehyde) was tested, and the “effect on GA-induced degradation of endogenous hTERT” value (H1299, 10 μM MG132 pretreatment 2 hours before GA) was “rescued”, the “effect on GA-induced down-regulation of hTERT” value (H1299 Flag-hTERT, 10 μM pretreatment 2 hours, then GA 4 hours) was “rescued” and the “hTERT expression levels, inhibitor alone” value (H1299 Flag-hTERT, 10 μM, absence of GA, relative to untreated controls) was “did not cause a significant change”.
